Experimental findings from PubChem BioAssay (NCI) are described below.

Test systems include CAKI-1 renal; NCI/ADR-RES ovarian; TK-10 renal; KM12 colon; NCI-H226 lung; COLO 205 colon; UACC-62 melanoma; HCC-2998 colon; EKVX NSCLC.
What all share (assay): DTP human tumour cell line panel, 48 h

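Growth conditions: 96-well plates. Treatment: test compound, 48 hours, 5 concentrations. Analysis: linear interpolation between bracketing concentrations; unreached endpoints set to highest concentration. Abbreviation: GI50, concentration required for 50% inhibition of growth. TGI: concentration producing complete growth inhibition.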 Calls of active or inactive are those of the source. No stated cut-off is given here; in the data, active means GI50 below about 0.43 µM; inactive means the rest.

As to `Clc1ncnc(Cl)c1Cl`, the TGI with CAKI-1 renal, with NCI/ADR-RES ovarian, in the assay on TK-10 renal, in the assay with KM12 colon, with NCI-H226 lung and in the assay on COLO 205 colon was above 100 µM each time. For the same molecule, the TGI with UACC-62 melanoma and with HCC-2998 colon was above 100 µM each time.
On to `CC(=O)N[C@@H](Cc1ccc(OP(=O)(O)O)cc1)C(=O)N[C@H]1CCC(=O)N2CCC[C@@H](C(=O)NCc3ccc(Cl)cc3)N2C1=O`, for which the GI50 with CAKI-1 renal, with NCI/ADR-RES ovarian, in the assay with TK-10 renal, with KM12 colon, in the assay on NCI-H226 lung and with COLO 205 colon was above 25 µM in each case. Besides, the GI50 in the assay with UACC-62 melanoma and in the assay with HCC-2998 colon was above 25 µM throughout. Also, the TGI in the assay on CAKI-1 renal, in the assay with NCI/ADR-RES ovarian, with TK-10 renal, in the assay on KM12 colon, in the assay on NCI-H226 lung and in the assay with COLO 205 colon was above 25 µM in each case. Also, the TGI in the assay on UACC-62 melanoma and in the assay on HCC-2998 colon was above 25 µM each time.
Take `COc1ccc(OC)c(/C=N/NC(=O)Cc2csc3nc(-c4ccc(Br)cc4)cn23)c1`: the GI50 is 17.1 µM in the assay with EKVX NSCLC; 12.6 µM in the assay on CAKI-1 renal; 12.8 µM with NCI/ADR-RES ovarian; 16.3 µM in the assay on TK-10 renal; 8.84 µM in the assay on KM12 colon; 35.7 µM with COLO 205 colon. Besides, the GI50 was 12.1 µM with UACC-62 melanoma and 10 µM in the assay on HCC-2998 colon. The TGI with EKVX NSCLC is 57.6 µM; in the assay with CAKI-1 renal it was 34.2 µM; in the assay with NCI/ADR-RES ovarian, 35.4 µM; in the assay on TK-10 renal, 51.2 µM; in the assay with KM12 colon, above 100 µM; in the assay on COLO 205 colon it was above 100 µM. Further, the TGI with UACC-62 melanoma is 27.7 µM; with HCC-2998 colon, 34.9 µM.
On to `COC(=O)CCC(=O)C(=O)OC`, for which the GI50 is 20600 µM with EKVX NSCLC; 72600 µM in the assay on NCI/ADR-RES ovarian; 27900 µM in the assay with KM12 colon; 17300 µM in the assay on NCI-H226 lung; 13600 µM in the assay on UACC-62 melanoma; 25300 µM in the assay on HCC-2998 colon. Also, the TGI in the assay on NCI-H226 lung was determined as 65100 µM; in the assay with UACC-62 melanoma it was 51100 µM; in the assay with HCC-2998 colon it was 73000 µM. For the same molecule, in the assay on COLO 205 colon, the outcome was inactive.
`COc1ccccc1NC(=O)c1sc2nc3c(cc2c1N)C(=O)CCC3`: the GI50 is 7.14 µM in the assay on NCI/ADR-RES ovarian; 4.87 µM in the assay with NCI-H226 lung; 2.03 µM in the assay on COLO 205 colon; 3.99 µM in the assay with UACC-62 melanoma; above 100 µM in the assay on HCC-2998 colon. For the same molecule, the TGI in the assay with NCI/ADR-RES ovarian, in the assay with NCI-H226 lung, with COLO 205 colon, in the assay with UACC-62 melanoma and with HCC-2998 colon was above 100 µM in each case.
Consider `O=C1C(Cl)=C(Nc2cccc(Cl)c2)C(=O)N1Cc1ccccc1`, for which the GI50 was 5.06 µM with CAKI-1 renal; 6.87 µM with NCI/ADR-RES ovarian; 13.9 µM in the assay on TK-10 renal; 11.5 µM in the assay with KM12 colon; 10.5 µM with NCI-H226 lung; 15.7 µM with COLO 205 colon. The GI50 in the assay on UACC-62 melanoma was 12.4 µM; in the assay with HCC-2998 colon, 4.59 µM. The TGI with CAKI-1 renal was 27.7 µM; in the assay with NCI/ADR-RES ovarian, 24.7 µM; in the assay on TK-10 renal it was 32.3 µM; in the assay with KM12 colon, 26.9 µM; with NCI-H226 lung it was 29.3 µM; in the assay with COLO 205 colon it was above 100 µM. The figures for the TGI in the assay on UACC-62 melanoma and with HCC-2998 colon were 27.5 µM and 18.1 µM, respectively.
Regarding `C=C1C(=O)O[C@H]2[C@H]1CC/C(CNC(=O)Cc1c[nH]c3ccccc13)=C\CC[C@@]1(C)O[C@@H]21`, the GI50 in the assay with EKVX NSCLC is 10.6 µM; with CAKI-1 renal, 4.77 µM; in the assay with NCI/ADR-RES ovarian, 19 µM; in the assay with TK-10 renal, 0.747 µM; in the assay with KM12 colon, 8.44 µM; in the assay with NCI-H226 lung it was 2.42 µM. Further, the figures for the GI50 in the assay with COLO 205 colon and in the assay on HCC-2998 colon were 0.313 µM and 4 µM, respectively. For the same molecule, the TGI with EKVX NSCLC turned out to be 22.4 µM; in the assay with CAKI-1 renal it was 17.1 µM; in the assay on NCI/ADR-RES ovarian, 65.6 µM; in the assay on TK-10 renal, 2.01 µM; with KM12 colon it was 21.6 µM; in the assay on NCI-H226 lung, 7.81 µM. Further, the TGI with COLO 205 colon was determined as 1.14 µM; with HCC-2998 colon, 15.5 µM.
Turning to `O=C(O)C/C(=C\c1ccco1)C(=O)O`, the TGI with EKVX NSCLC, in the assay with CAKI-1 renal, with NCI/ADR-RES ovarian, in the assay on TK-10 renal, in the assay with KM12 colon and in the assay with NCI-H226 lung was above 100 µM in each case. Further, the TGI with COLO 205 colon and with UACC-62 melanoma was above 100 µM in each case.
For `CCN(CC)CCOCC[C@H]1CC[C@H]2[C@@H]3[C@H](C)Cc4cc(OS(N)(=O)=O)ccc4[C@H]3CC[C@]12C`, the GI50 with EKVX NSCLC was 0.765 µM; in the assay with CAKI-1 renal, 1.36 µM; in the assay on NCI/ADR-RES ovarian it was 1.57 µM; with TK-10 renal, 1.3 µM; in the assay with KM12 colon it was 1.25 µM; with COLO 205 colon, 0.62 µM. Moreover, in the assay on HCC-2998 colon, the GI50 is 1.63 µM. In addition, the TGI in the assay on EKVX NSCLC is 3.65 µM; in the assay with CAKI-1 renal, 2.97 µM; in the assay on NCI/ADR-RES ovarian, 3.87 µM; in the assay on TK-10 renal, 3.34 µM; in the assay with KM12 colon it was 2.55 µM; in the assay with COLO 205 colon, 1.78 µM. Also, the TGI with HCC-2998 colon came out at 3.23 µM.
As for `Nc1c(C(=O)c2cccc(CCCN3CCOCC3)c2)cnn1-c1ccc(F)cc1`, the GI50 with CAKI-1 renal, with NCI/ADR-RES ovarian, with TK-10 renal, in the assay on KM12 colon, with NCI-H226 lung and in the assay on COLO 205 colon was above 25 µM in each case. Besides, the GI50 in the assay with UACC-62 melanoma and in the assay with HCC-2998 colon was above 25 µM in each case. Further, the TGI in the assay with CAKI-1 renal, in the assay with NCI/ADR-RES ovarian, in the assay with TK-10 renal, with KM12 colon, in the assay on NCI-H226 lung and in the assay with COLO 205 colon was above 25 µM each time. Further, the TGI with UACC-62 melanoma and with HCC-2998 colon was above 25 µM throughout.

What is called TGI is the concentration at which net growth stops. The term GI50 denotes the concentration at which growth is held to half of that of the control.
